# Results taken from patent US20250057808A1, “COMPOSITION COMPRISING BETA LACTAM FOR TREATING ALCOHOL DEPENDENCE AND ALCOHOL ASSOCIATED DISEASES OR CONDITIONS” (Temple University of the Commonwealth System of Higher …, priority 2023, published 2025).
# Entries after “also recorded” stand apart in the source; their conditions may differ.
# Legend:
# [1] = test system: GLT-1; assay: GLT-1 expression in mPFC subregions IL and PL (further studies, 100 mg/kg); type: in vivo, Male P rats; settings: MC-100093 100 mg/kg i.p. 5 days
# Procedure: We used micro-punch procedure to dissect the subregions of the NAc such as NAc-core and NAc-shell as well as the subregions of prefrontal cortex such as infralimbic (IL) and prelimbic (PL) from the brain on day 6 after the last injection day. P rats were removed from the cage and rapidly euthanized by CO2 inhalation followed by rapid decapitation with a guillotine. Brains were isolated and immediately frozen on dry ice and stored at −80° C. The stereotaxic coordinates provided by Paxinos and colleague's rat brain stereotactic atlas was used to isolate NAc-core and NAc-shell using a cryostat apparatus (−20° C.), which then kept at −80° C. for later western blot analyses.
# Western Blot assay was performed to measure changes in the expression of GLT-1, xCT, mGluR1, mGluR5, PPAR-α, PPARγ, GAPDH and β-tubulin in the NAc-core and NAc-shell as described in previous publications. A lysis buffer containing protease and phosphatase inhibitors was used to generate a homogenate of liver, Nac-core, and Nac-shell samples. The amount of protein was quantified using a detergent compatible protein assay (Bio-Rad, Hercules, CA, USA) for each sample. Samples were mixed with laemmli dye and loaded with equal amounts on polyacrylamide gels (10%), which separated the proteins using electrophoresis. […]
# [2] = Ethanol drinking paradigm, three-bottle choice (MC-100093 50 mg/kg vs ceftriaxone 200 mg/kg); type: in vivo, P rats
# Procedure: P rats were received from Indiana University School of Medicine (Indianapolis, IN, USA), and were housed in a 21° C. on a 12/12 h light/dark cycle-maintained room where they had free access to water and food. All experimental procedures were approved by the Institutional Animal Care and Use Committee (IACUC) of The University of Toledo, in accordance with the guidelines governing the use of animals in research of the National Institutes of Health as described in the Guidefor the Care and Use of Laboratory Animals.
# We used an ethanol drinking paradigm as described previously by Alhaddad, et al. (2014). Briefly, animals started the experimental drinking procedure at age of 90 days. The animals had five weeks of exposure to continuous three-bottle choice drinking, 0%, 15% and 30%, v/v ethanol in water, available concurrently. Daily measurement of ethanol intake was performed (g of ethanol intake/kg of body weight/day). We measured the baseline ethanol drinking by average the intake during the last three weeks. Three groups of P rats (n=8-9/group) exposed to the five weeks ethanol exposure. At week 6, rats in each group received daily intraperitoneal injection of either MC-100093 at dose of 50 mg/kg (Ethanol-MC group), Ceftriaxone at dose of 200 mg/kg (Ethanol-CEF group, which also serves as positive control), or equivolume of saline vehicle (Ethanol group) for five days. This paradigm results in pharmacologically relevant blood alcohol concentration (50-200 mg %). Following the criteria for the development of ethanol dependence, rats whose average ethanol intake <4 g/kg/day were excluded from the study. Beside the ethanol exposed groups, another group of P rats (n=8) exposed to only water and food throughout the exposure procedures (control group).
# (§1) All statistical analyses were conducted with Graphpad Prism software, with p-values of 0.05 or less being statistically significant. We performed a two-way (mixed model) ANOVA followed by Bonferroni multiple comparison post-hoc test to analyze 24 h ethanol consumption, 24 h water consumption, and daily body weight. For the Western blot and oil red O staining analysis, we performed one-way ANOVA with Newman-Keuls as a post hoc multiple comparison test to measure differences between groups as a percentage (relative to control values).
# [3] = test system: fat content in the liver; assay: Liver Oil Red O staining (fat content); type: in vivo, P rats; settings: MC-100093 50 mg/kg or ceftriaxone 200 mg/kg i.p. 5 days, control, ethanol, ethanol-CEF groups
# Procedure: To measure the fat content in the liver sections, we used Oil Red O (Sigma, CAS Number 1320-06-5) staining on 10 μm thick formalin-fixed liver sections and placed in slides for further staining. The slides were stained with freshly prepared Oil Red O working solution 15 minutes then rinsed with 60% isopropanol. Slides were then rinsed with distilled water and mounted in aqueous mounting media and prepared for imaging. The degree of Oil Red O staining was determined at 20× magnification using a color video camera attached to an Olympus VS120 slide scanning microscope. Olympus OlyVIA software was used to analyze the images. The lipid droplets were quantified using Image J pro (NIH). Data are presented as the mean+SEM of the Oil Red O staining for each group.
# as §1
smiles,measurement,setting,value
C[C@@H](O)[C@H]1C(=O)N[C@@H]1[C@@H](C)C(=O)N1CCN(C)CC1 [MC-100093],GLT-1 expression in the prelimbic frontal cortex (PL),[1]; vs control/saline and ethanol/saline,increased GLT-1 expression in both subregions of mPFC; also recorded: non-statistically significant increase of GLT-1 expression; also recorded: upregulated the expression of GLT-1
same,GLT-1 expression in the infralimbic prefrontal cortex (IL),[1]; vs ethanol/saline,increased GLT-1 expression in both subregions of mPFC; also recorded: significantly higher levels of GLT-1 expression; also recorded: increased the expression of GLT-1; also recorded: upregulated GLT-1 expression
same,Body weight (grams),[2]; MC-100093 50 mg/kg i.p. or ceftriaxone 200 mg/kg i.p. 5 days,"Neither MC-100093 (50 mg/kg, i.p.) nor Ceftriaxone (200 mg/kg, i.p.) treatment has significant effect; also recorded: no significant effects"
same,Water intake (mL/day),"[2]; MC-100093 50 mg/kg i.p. or ceftriaxone 200 mg/kg i.p. 5 days, vs Ethanol-Saline group (MC-100093: at day 5 only)",significant increase in water consumption
same,Ethanol consumption (g/kg of average body weight/24 hr),"[2]; P rats after 5 wk ethanol, MC-100093 50 mg/kg i.p. or ceftriaxone 200 mg/kg i.p. daily 5 days, vs Ethanol-Saline group",significant decrease in ethanol consumption from day 1 through day 5; also recorded: significantly reduced ethanol consumption from day 2 through day 5; also recorded: attenuated ethanol drinking behavior; also recorded: attenuated moderately ethanol intake as compared to ceftriaxone
same,Liver fat content (Oil Red O stained fat droplets),[3],"no significant difference in fat content between control, ethanol-MC, and ethanol-CEF groups; also recorded: significantly higher fat droplet content in ethanol group (p<0.05) compared to control, ethanol-MC or ethanol-CEF groups; also recorded: alleviated the liver steatosis"
